# Measurements: publication PMC11358092, “Caspofungin enhances the potency of rifampin against Gram-negative bacteria” (Frontiers in Microbiology, 2024)
# Counter-ions that a name gives are not always drawn.
# System: E. coli MG1655
# Assay: High-throughput screening of FDA-approved drug library for antibiotic adjuvants (growth inhibition, OD600)
# Type: cell-based, Escherichia coli
# Conditions: library drug alone, LB medium, 96-well, 8 h static culture at 37°C, relative to PMBN (positive) and DMSO (negative) controls, %, table head prints no unit
# Protocol: To screen for antibiotic adjuvants against GNB, […] library drugs or polymyxin B nonapeptide (PMBN, positive control) or dimethyl sulfoxide (DMSO, negative control). After 8 h of static culture at 37°C, the optical density at 600 nm (OD600) was measured using a microplate reader. Percentage inhibition was calculated as (ODN – ODX)/(ODN – ODP) × 100%, where ODX is the OD600 value for a test treated with drug X, and ODP and ODN are the OD600 values for the positive and negative control, respectively.
row,Compound,"Growth inhibition, Compound"
1,"O.c1cnc2c(c1)ccc1cccnc12 [1, 10-Phenanthroline monohydrate]",62%
2,N[C@@H]1[C@H]2CN(c3nc4c(cc3F)c(=O)c(C(=O)O)cn4-c3ccc(F)cc3F)C[C@@H]12 [Trovafloxacin mesylate],116%
3,CO/N=C1\CN(c2nc3c(cc2F)c(=O)c(C(=O)O)cn3C2CC2)CC1CN (stereo not shown) [Gemifloxacin mesylate],105%
4,O=C(Nc1ccc(Cl)cc1)c1cc(Br)ccc1O [Salifungin],67%
5,[H]/N=C(\N/C(=N/[H])NCCCCCCNC(=N)NC(=N)Nc1ccc(Cl)cc1)Nc1ccc(Cl)cc1 [Chlorhexidine hydrochloride],107%
6,CC(=O)OCC1=C(C(=O)O)N2C(=O)[C@@H](NC(=O)Cc3cccs3)[C@H]2SC1 [Cephalotin acid],92%
7,O=c1[nH]cnc2c1ncn2[C@H]1CC[C@@H](CO)O1 [Didanosine],41%
8,COCC1=C(C(=O)O)N2C(=O)[C@@H](NC(=O)/C(=N\OC)c3csc(N)n3)[C@H]2SC1 [Cefpodoxime (free acid)],108%
9,CCn1cc(C(=O)O)c(=O)c2cc(F)c(N3CCNC(C)C3)c(F)c21 (stereo not shown) [Lomefloxacin hydrochloride],107%
10,CN(C)[C@@H]1C(O)=C(C(N)=O)C(=O)[C@@]2(O)C(O)=C3C(=O)c4c(O)ccc(Cl)c4[C@@](C)(O)[C@H]3C[C@@H]12 [Chlortetracycline hydrochloride],111%
11,CN(C)[C@@H]1C(O)=C(C(N)=O)C(=O)[C@@]2(O)C(O)=C3C(=O)c4c(O)cccc4[C@@](C)(O)[C@H]3[C@H](O)[C@@H]12 [Oxytetracycline Dihydrate],101%
12,C=CC1=C(C(=O)O)N2C(=O)[C@@H](NC(=O)/C(=N\OCC(=O)O)c3csc(N)n3)[C@H]2SC1 [Cefixime],109%
13,CC1(C)S[C@@H]2[C@H](NC(=O)[C@H](N)c3ccc(O)cc3)C(=O)N2[C@H]1C(=O)[O-].[Na+] [Amoxicillin Sodium],98%
14,CCCCCCCCCCCCCCCC[N+](C)(C)C [Cetrimonium bromide],87%
15,CO/N=C(\C(=O)N[C@@H]1C(=O)N2C(C(=O)O)=CCS[C@H]12)c1csc(N)n1 [Ceftizoxime],101%
16,C=C1c2cccc(O)c2C(=O)C2=C(O)[C@]3(O)C(=O)C(C(N)=O)=C(O)[C@@H](N(C)C)[C@@H]3[C@@H](O)[C@H]12 [Methacycline hydrochloride],112%
17,CCN1CCN(C(=O)N[C@@H](C(=O)N[C@@H]2C(=O)N3[C@@H]2SC(C)(C)[C@@H]3C(=O)O)c2ccccc2)C(=O)C1=O [piperacillin],107%
18,CCn1cc(C(=O)[O-])c(=O)c2ccc(C)nc21.[Na+] [Nalidixic acid sodium salt],63%
19,CCCCCCCCc1ccc(CCC(N)(CO)CO)cc1 [Fingolimod],90%
20,C/C(=C\C(=O)OCCCCCCCCC(=O)O)C[C@@H]1OC[C@H](C[C@@H]2O[C@H]2[C@@H](C)[C@H](C)O)[C@@H](O)[C@H]1O [Mupirocin],83%
21,COc1ccc(Cc2cnc(N)nc2N)cc1OC [Diaveridine],107%
22,CCn1cc(C(=O)O)c(=O)c2cc(F)c(N3CCNCC3)nc21.CCn1cc(C(=O)O)c(=O)c2cc(F)c(N3CCNCC3)nc21.O.O.O [Enoxacin Sesquihydrate],110%
23,Cc1nnc(SCC2=C(C(=O)O)N3C(=O)[C@@H](NC(=O)Cn4cc(Cl)c(=O)c(Cl)c4)[C@H]3SC2)s1 [Cefazedone],111%
24,NC[C@H]1O[C@H](O[C@H]2[C@H](O)[C@@H](O[C@H]3O[C@H](CO)[C@@H](O)[C@H](N)[C@H]3O)[C@H](N)C[C@@H]2N)[C@H](O)[C@@H](O)[C@@H]1O [Kanamycin sulfate],109%
25,CN(C)[C@@H]1C(O)=C(C(N)=O)C(=O)[C@@]2(O)C(O)=C3C(=O)c4c(O)cccc4[C@@](C)(O)[C@H]3[C@H](O)[C@@H]12 [Oxytetracycline Hydrochloride],106%
26,CO[C@@]1(NC(=O)CSCC#N)C(=O)N2C(C(=O)O)=C(CSc3nnnn3C)CS[C@@H]21 [Cefmetazole sodium],96%
27,C[C@H]1COc2c(N3CCN(C)CC3)c(F)cc3c(=O)c(C(=O)O)cn1c23 [Levofloxacin Hemihydrate],114%
28,Cc1cn([C@H]2C=C[C@@H](CO)O2)c(=O)[nH]c1=O [Stavudine],27%

row,Compound,"Growth inhibition, Compound"
1,NC(=O)[C@@H]1CC[C@@H]2CN1C(=O)N2OS(=O)(=O)O [Avibactam sodium],46%
2,CC[C@H]1OC(=O)[C@H](C)[C@@H](O[C@H]2C[C@@](C)(OC)[C@@H](O)[C@H](C)O2)[C@H](C)[C@@H](O[C@@H]2O[C@H](C)C[C@H](N(C)C)[C@H]2O)[C@](C)(O)C[C@@H](C)CN(C)[C@H](C)[C@@H](O)[C@]1(C)O [Azithromycin dihydrate],111%
3,CCO.C[C@H]1c2cccc(O)c2C(O)=C2C(=O)[C@]3(O)C(O)=C(C(N)=O)C(=O)[C@@H](N(C)C)[C@@H]3[C@@H](O)[C@@H]21.C[C@H]1c2cccc(O)c2C(O)=C2C(=O)[C@]3(O)C(O)=C(C(N)=O)C(=O)[C@@H](N(C)C)[C@@H]3[C@@H](O)[C@@H]21.Cl.Cl.O [Doxycycline hyclate],112%
4,C[C@@H](O)[C@H]1C(=O)N2C(C(=O)O)=C(SCCN=CN)C[C@H]12 [Imipenem monohydrate],109%
5,C[C@@H](O)[C@H]1C(=O)N2C(C(=O)[O-])=C(SC3Cn4cnc[n+]4C3)[C@H](C)[C@H]12 (stereo partly shown) [Biapenem],113%
6,CC1(C)S[C@@H]2[C@H](NC(=O)Cc3ccccc3)C(=O)N2[C@H]1C(=O)O [Penicillin G sodium salt],38%
7,CCN1C(=O)C=CC1=O [N-Ethylmaleimide],106%
8,CCn1cc(C(=O)O)c(=O)c2cc(F)c(N3CCNCC3)cc21 [Norfloxacin],99%
9,N[C@@H]1CN(c2c(F)cc3c(=O)c(C(=O)O)cn([C@@H]4C[C@@H]4F)c3c2Cl)CC12CC2.N[C@@H]1CN(c2c(F)cc3c(=O)c(C(=O)O)cn([C@@H]4C[C@@H]4F)c3c2Cl)CC12CC2.O.O.O [Sitafloxacin Hydrate],101%
10,CC1COc2c(N3CCN(C)CC3)c(F)cc3c(=O)c(C(=O)O)cn1c23 (stereo not shown) [Ofloxacin],107%
11,Cc1cn([C@H]2C[C@H](N=[N+]=[N-])[C@@H](CO)O2)c(=O)[nH]c1=O [Zidovudine],95%
12,COC(=O)N/N=C/c1c[n+]([O-])c2ccccc2[n+]1[O-] [Carbadox],110%
13,CO[C@H]1/C=C/O[C@@]2(C)Oc3c(C)c(O)c4c([O-])c(cc(O)c4c3C2=O)NC(=O)/C(C)=C\C=C\[C@H](C)[C@H](O)[C@@H](C)[C@@H](O)[C@@H](C)[C@H](OC(C)=O)[C@@H]1C.[Na+] [Rifamycin sodium salt],25%
14,Oc1c(Cl)cc(Cl)cc1Sc1cc(Cl)cc(Cl)c1O [Bithionol],86%
15,CN(C)CCn1nnnc1SCC1=C(C(=O)O)N2C(=O)[C@@H](NC(=O)Cc3csc(N)n3)[C@H]2SC1 [Cefotiam hydrochloride],105%
16,C[C@H]1COc2c(N3CCN(C)CC3)c(F)cc3c(=O)c(C(=O)O)cn1c23 [Levofloxacin],102%
17,Cc1c(-c2ccccc2)oc2c(C(=O)OCCN3CCCCC3)cccc2c1=O [Flavoxate hydrochloride],95%
18,NCc1ccccc1CC(=O)N[C@@H]1C(=O)N2C(C(=O)O)=C(CSc3nnnn3CC(=O)O)CS[C@H]12 [Ceforanide],94%
19,CS(=O)(=O)c1ccc([C@@H](O)[C@@H](CF)NC(=O)C(Cl)Cl)cc1 [Florfenicol],116%
20,CNc1ncc(-c2ccc3c(=O)c(C(=O)O)cn(C4CC4)c3c2C)cc1C [Ozenoxacin],106%
21,O=C([O-])C1=C(CSc2nnnn2CS(=O)(=O)[O-])CS[C@@H]2[C@H](NC(=O)[C@H](O)c3ccccc3)C(=O)N12.[Na+].[Na+] [Cefonicid sodium],59%
22,CO/N=C(\C(=O)N[C@@H]1C(=O)N2C(C(=O)OCOC(=O)C(C)(C)C)=C(Cn3nnc(C)n3)CS[C@H]12)c1csc(N)n1 [Cefteram pivoxil],110%
23,CO/N=C(\C(=O)N[C@@H]1C(=O)N2C(C(=O)O)=C(C[N+]3(C)CCCC3)CS[C@H]12)c1csc(N)n1 [Cefepime Dihydrochloride Monohydrate],83%
24,CC(=O)Nc1ncc([N+](=O)[O-])s1 [Nithiamide],87%
25,O=c1[nH]c(=O)n([C@H]2C[C@H](O)[C@@H](CO)O2)cc1C(F)(F)F [Trifluridine],27%
26,CCN[C@@H]1C[C@H](N)[C@@H](O[C@H]2OC(CN)=CC[C@H]2N)[C@H](O)[C@H]1O[C@H]1OC[C@](C)(O)[C@H](NC)[C@H]1O.CCN[C@@H]1C[C@H](N)[C@@H](O[C@H]2OC(CN)=CC[C@H]2N)[C@H](O)[C@H]1O[C@H]1OC[C@](C)(O)[C@H](NC)[C@H]1O.O=S(=O)(O)O.O=S(=O)(O)O.O=S(=O)(O)O.O=S(=O)(O)O.O=S(=O)(O)O [Netilmicin sulfate],109%
27,CO/N=C(\C(=O)N[C@@H]1C(=O)N2C(C(=O)O)=C(CSc3nc(C)c(CC(=O)O)s3)CS[C@H]12)c1csc(N)n1 [Cefodizime Sodium],88%
